Where “and” joins values, the source holds several entries; their conditions need not be identical. Identical values can stand only once. Where a SMILES comes first, the peptide text is derived from it. [ ]: non-standard residue; d: D form. Hyp = O=C(O)[C@@H]1C[C@@H](O)CN1
Tests used:
IL-2 = test: Example 8 main study Luminex, LPS hPBMCs: IL-2; type: cell-based, human; conditions: for IL-2 Concentration, individual wells / IL-2 MFI, individual wells / IL-2 MFI, Mean / IL-2 Concentration, Mean: 24 h; for IL-2 MFI, Mean: LPS alone Mean 80.5; for IL-2 Concentration, Mean: LPS alone Mean 3988.7; for LPS-induced IL-2 (in words): at as low as 5 μM, LPS 5 ug/mL 24 hrs
Description: (§1) Human PBMCs were pretreated with YY-101, YDE-011, YDE-043 or reference compound; Xiidra® at various concentration (ranging from […] to 500 nM) for 2 h before stimulation. An equal volume of 0.5% DMSO was used as a vehicle control. Then, the cells were treated with LPS at 5 ug/ml, which was selected based on the pilot study. The supernatants from treated cells were harvested at 24 h and placed in a 96 well for Luminex cytokine & chemokine profiling using a Luminex 200 multiplex assay (Luminex; R&D system, USA).
(§2) The main study arm with triplicate wells per group in a 24-well plate: • 1. Blank • 2. PBMC: 0.5% DMSO • 3. PBMC+LPS (5 ug/ml) • 4. PBMC+YY-101 500 nM • 5. PBMC+YY-101 50 nM • 6. PBMC+YY-101 5 nM • 7. PBMC+YY-101 0.5 nM • 8. PBMC+LPS (5 ug/ml)+Xiidra® 500 nM • 9. PBMC+LPS (5 ug/ml)+Xiidra® 50 nM • 10. PBMC+LPS (5 ug/ml)+Xiidra® 5 nM • 11. PBMC+LPS (5 ug/ml)+Xiidra® 0.5 nM • 12. PBMC+LPS (5 ug/ml)+Xiidra® 0.05 nM • 13. PBMC+LPS (5 ug/ml)+Xiidra® 0.005 nM • 14. PBMC+LPS (5 ug/ml)+YY-101 500 nM • 15. PBMC+LPS (5 ug/ml)+YY-101 50 nM • 16. PBMC+LPS (5 ug/ml)+YY-101 5 nM • 17. PBMC+LPS (5 ug/ml)+YY-101 0.5 nM • 18. PBMC+LPS (5 ug/ml)+YY-101 0.05 nM • 19. PBMC+LPS (5 ug/ml)+YY-101 0.005 nM • 20. PBMC+LPS (5 ug/ml)+YDE-011 500 nM • 21. PBMC+LPS (5 ug/ml)+YDE-011 50 nM • 22. PBMC+LPS (5 ug/ml)+YDE-011 5 nM • 23. PBMC+LPS (5 ug/ml)+YDE-011 0.5 nM • 24. PBMC+LPS (5 ug/ml)+YDE-011 0.05 nM • 25. PBMC+LPS (5 ug/ml)+YDE-011 0.005 nM • 26. PBMC+LPS (5 ug/ml)+YDE-043 500 nM • 27. PBMC+LPS (5 ug/ml)+YDE-043 50 nM • 28. PBMC+LPS (5 ug/ml)+YDE-043 5 nM • 29. PBMC+LPS (5 ug/ml)+YDE-043 0.5 nM • 30. PBMC+LPS (5 ug/ml)+YDE-043 0.05 nM • 31. PBMC+LPS (5 ug/ml)+YDE-043 0.005 nM
(§3) Multiplex assay was used to measure 30 cytokines and chemokines. The 1:200 diluted cell supernatant and serial dilution of the standard were dispensed into a 96 well plate at 50 ul/well. Then, the pre-mixed cocktail of antibody-coated magnetic beads was dispensed at 50 ul/well and incubated at room temperature for 2 h in a horizontal orbital microplate shaker at 800±500 rpm. The beads were washed using a magnetic device to prevent loss. The biotin-antibody was dispensed in 50 ul of each well and incubated at room temperature for 1 h in a shaker at 800±500 rpm. After washing, streptavidin-PE was added at 50 ul/well and incubated at room temperature for 30 min in a shaker under the same conditions. Finally, after washing, wash buffer (100 ul/well) was added to the plate and incubated in a shaker for 2 min. The Luminex™ 200 setting were set according to the manufacturer's protocol. The data was calculated with a standard five-parameter logistic nonlinear regression analysis of the data (xPonent software 4.2, USA). Results were presented as concentration (ng/ml or pg/ml).

CCL2/MCP-1 = test: Example 8 main study Luminex, LPS hPBMCs: CCL2/MCP-1; type: cell-based, human; conditions: for CCL2/MCP-1 Concentration: single replicates; for LPS-induced CCL-2 (in words): at as low as 5 μM, LPS 5 ug/mL 24 hrs
Description: as §1, §2, §3

[1] = PBMC + LPS(5 ug/ml) + compound 0.005 nM
[2] = PBMC + LPS(5 ug/ml) + compound 0.05 nM
[3] = PBMC + LPS(5 ug/ml) + compound 0.5 nM
[4] = PBMC + LPS(5 ug/ml) + compound 5 nM
[5] = PBMC + LPS(5 ug/ml) + compound 50 nM
[6] = PBMC + LPS(5 ug/ml) + compound 500 nM
[7] = PBMC + LPS(5 ug/ml) + YDE011 0.005 nM
[8] = PBMC + LPS(5 ug/ml) + YDE011 0.05 nM
[9] = PBMC + LPS(5 ug/ml) + YDE011 0.5 nM
[10] = PBMC + LPS(5 ug/ml) + YDE011 5 nM
[11] = PBMC + LPS(5 ug/ml) + YDE011 50 nM
[12] = PBMC + LPS(5 ug/ml) + YDE011 500 nM
[13] = PBMC + LPS(5 ug/ml) + YDE043 0.005 nM
[14] = PBMC + LPS(5 ug/ml) + YDE043 0.05 nM
[15] = PBMC + LPS(5 ug/ml) + YDE043 0.5 nM
[16] = PBMC + LPS(5 ug/ml) + YDE043 5 nM
[17] = PBMC + LPS(5 ug/ml) + YDE043 50 nM
[18] = PBMC + LPS(5 ug/ml) + YDE043 500 nM

Compound | IL-2 Concentration, individual wells (IL-2; [1]) | IL-2 MFI, individual wells (IL-2; [1]) | IL-2 MFI, Mean (IL-2; [1]) | IL-2 Concentration, Mean (IL-2; [1]) [pg/mL] | IL-2 Concentration, individual wells (IL-2; [2]) | IL-2 MFI, individual wells (IL-2; [2]) | IL-2 MFI, Mean (IL-2; [2]) | IL-2 Concentration, Mean (IL-2; [2]) [pg/mL] | IL-2 Concentration, individual wells (IL-2; [3]) | IL-2 MFI, individual wells (IL-2; [3]) | IL-2 MFI, Mean (IL-2; [3]) | IL-2 Concentration, Mean (IL-2; [3]) [pg/mL] | IL-2 Concentration, individual wells (IL-2; [4]) | IL-2 MFI, individual wells (IL-2; [4]) | IL-2 MFI, Mean (IL-2; [4]) | IL-2 Concentration, Mean (IL-2; [4]) [pg/mL] | IL-2 Concentration, individual wells (IL-2; [5]) | IL-2 MFI, individual wells (IL-2; [5]) | IL-2 MFI, Mean (IL-2; [5]) | IL-2 Concentration, Mean (IL-2; [5]) [pg/mL] | further results
CC(C)C[C@H](NC(=O)CNC(=O)[C@H](CC(C)C)NC(=O)[C@H](CCC(N)=O)NC(=O)CNC(=O)[C@@H]1C[C@@H](O)CN1)C(=O)N[C@@H](C)C(=O)NCC(=O)N1CCC[C@H]1C(=O)N[C@@H](CCCCN)C(=O)O [YDE-011] (H-[Hyp]GQLGLAGPK-OH) | 2239.1 pg/mL and 2082.5 pg/mL and 2707.7 pg/mL | 58.0 and 56.0 and 64.0 | 59.3 | 2343.1 | 2707.7 pg/mL and 2473.6 pg/mL and 2824.6 pg/mL | 64.0 and 61.0 and 65.5 | 63.5 | 2668.6 | 2239.1 pg/mL and 1925.7 pg/mL and 2200.0 pg/mL | 58.0 and 54.0 and 57.5 | 56.5 | 2121.6 | 1532.6 pg/mL and 1611.3 pg/mL and 2551.7 pg/mL | 49.0 and 50.0 and 62.0 | 53.7 | 1898.5 | 2160.8 pg/mL and 659.4 pg/mL and 2082.5 pg/mL | 57.0 and 38.0 and 56.0 | 50.3 | 1634.3 | IL-2 Concentration, individual wells (IL-2; [6]): 2941.4 pg/mL and 579.2 pg/mL and 1729.4 pg/mL; IL-2 MFI, individual wells (IL-2; [6]): 67.0 and 37.0 and 51.5; IL-2 MFI, Mean (IL-2; [6]): 51.8; IL-2 Concentration, Mean (IL-2; [6]): 1750.0 pg/mL; LPS-induced IL-2 (in words) (IL-2): significantly reduced; CCL2/MCP-1 Concentration, Mean (CCL2/MCP-1; [7]): 4425.2 pg/mL; CCL2/MCP-1 Concentration (CCL2/MCP-1; [7]): 4425.5 pg/mL and 4528.4 pg/mL and 4321.5 pg/mL; CCL2/MCP-1 Concentration, Mean (CCL2/MCP-1; [8]): 4442.7 pg/mL; CCL2/MCP-1 Concentration (CCL2/MCP-1; [8]): 4425.5 pg/ml (2×) and 4477.1 pg/ml; CCL2/MCP-1 Concentration, Mean (CCL2/MCP-1; [9]): 4303.7 pg/mL; CCL2/MCP-1 Concentration (CCL2/MCP-1; [9]): 4425.5 pg/mL and 4269.1 pg/mL and 4216.3 pg/mL; CCL2/MCP-1 Concentration, Mean (CCL2/MCP-1; [10]): 4178.7 pg/mL; CCL2/MCP-1 Concentration (CCL2/MCP-1; [10]): 3893.1 pg/ml and 4321.5 pg/ml (2×); CCL2/MCP-1 Concentration, Mean (CCL2/MCP-1; [11]): 4173.5 pg/mL; CCL2/MCP-1 Concentration (CCL2/MCP-1; [11]): 4528.4 pg/mL and 3670.6 pg/mL and 4321.5 pg/mL; CCL2/MCP-1 Concentration, Mean (CCL2/MCP-1; [12]): 4170.5 pg/mL; CCL2/MCP-1 Concentration (CCL2/MCP-1; [12]): 4731.0 pg/mL and 3670.6 pg/mL and 4109.9 pg/mL; LPS-induced CCL-2 (in words) (CCL2/MCP-1): significantly reduced
CC(C)C[C@H](NC(=O)[C@H](CCC(N)=O)NC(=O)CNC(=O)[C@@H]1C[C@@H](O)CN1)C(=O)NCC(=O)O [YDE-043] (H-[Hyp]GQLG-OH; N-terminus and C-terminus assumed) | 2239.1 pg/mL and 2317.3 pg/mL and 3058.1 pg/mL | 58.0 and 59.0 and 68.5 | 61.8 | 2538.2 | 2004.2 pg/ml and 2239.1 pg/ml (2×) | 55.0 and 58.0 (2×) | 57.0 | 2160.8 | 2082.5 pg/mL and 2317.3 pg/mL and 2121.7 pg/mL | 56.0 and 59.0 and 56.5 | 57.2 | 2173.8 | 2785.6 pg/mL and 2395.5 pg/mL and 2473.6 pg/mL | 65.0 and 60.0 and 61.0 | 62.0 | 2551.6 | 2551.7 pg/mL and 2395.5 pg/mL and 2239.1 pg/mL | 62.0 and 60.0 and 58.0 | 60.0 | 2395.4 | IL-2 Concentration, individual wells (IL-2; [6]): 2004.2 pg/mL and 2082.5 pg/mL and 2239.1 pg/mL; IL-2 MFI, individual wells (IL-2; [6]): 55.0 and 56.0 and 58.0; IL-2 MFI, Mean (IL-2; [6]): 56.3; IL-2 Concentration, Mean (IL-2; [6]): 2108.6 pg/mL; LPS-induced IL-2 (in words) (IL-2): significantly reduced; CCL2/MCP-1 Concentration, Mean (CCL2/MCP-1; [13]): 4629.2 pg/mL; CCL2/MCP-1 Concentration (CCL2/MCP-1; [13]): 4425.5 pg/ml and 4731.0 pg/ml (2×); CCL2/MCP-1 Concentration, Mean (CCL2/MCP-1; [14]): 4545.3 pg/mL; CCL2/MCP-1 Concentration (CCL2/MCP-1; [14]): 4528.4 pg/mL and 4477.1 pg/mL and 4630.2 pg/mL; CCL2/MCP-1 Concentration, Mean (CCL2/MCP-1; [15]): 4390.9 pg/mL; CCL2/MCP-1 Concentration (CCL2/MCP-1; [15]): 4425.5 pg/ml (2×) and 4321.5 pg/ml; CCL2/MCP-1 Concentration, Mean (CCL2/MCP-1; [16]): 4562.3 pg/mL; CCL2/MCP-1 Concentration (CCL2/MCP-1; [16]): 4579.5 pg/mL and 4477.1 pg/mL and 4630.2 pg/mL; CCL2/MCP-1 Concentration, Mean (CCL2/MCP-1; [17]): 4578.9 pg/mL; CCL2/MCP-1 Concentration (CCL2/MCP-1; [17]): 4528.4 pg/mL and 4731.0 pg/mL and 4477.1 pg/mL; CCL2/MCP-1 Concentration, Mean (CCL2/MCP-1; [18]): 4630.2 pg/mL; CCL2/MCP-1 Concentration (CCL2/MCP-1; [18]): 4630.2 pg/mL; LPS-induced CCL-2 (in words) (CCL2/MCP-1): significantly reduced

— US20230146455A1, “TREATMENT OF INFLAMMATORY DISEASES WITH PEPTIDES AND PHARMACEUTICAL COMPOSITIONS” (Yuyu Pharma, Inc., priority 2020, published 2023)
